Here are results for two compounds from patent US20080317728A1, “Lowering Uric Acid to Prevent or Accelerate Recovery of Acute Renal Failure” (UNIVERSITY OF FLORIDA RESEARCH FOUNDATION, INC., priority 2004, published 2008).

In the assay the test system is normal rats on normal sodium diet. Description: Renal histology, afferent arteriole morphology in normal rats. It is filed as in vivo, Sprague-Dawley rats. How it is done:
Hyperuricemia in normal rats on normal sodium diet: To produce hyperuricemia, rats were administered oxonic acid (OA) (Sigma, St Louis Mo., USA) 750 mg/kg body weight by gastric gavage. To prevent the rise of serum uric acid induced by OA, allopurinol (AP) (Sigma, St Louis Mo., USA) was administered in drinking water (150 mg/L). We studied the following groups: Control (n=8); OA (n=7) and OA plus allopurinol (n=9). Systolic blood pressure and serum uric acid were measured at baseline and after 30-33 days of follow-up. Micropuncture studies were performed at 5 weeks.
Renal Histology: After the micropuncture study kidneys and remnant kidneys were washed by perfusion with PBS and then fixed with 4% paraformaldehyde. Renal biopsies were embedded in paraffin. Four μm sections of fixed tissue were stained with periodic acid Schiff (PAS) reagent. Arteriolar morphology was assessed by indirect peroxidase immunostaining for alpha-smooth muscle actin (DAIO Corp. Carpinteria, Calif., USA). In addition in remnant kidney rats glomerulosclerosis and fibrosis was assessed with Masson's trichrome stain and tubulointerstitial lymphocytes were assessed by indirect immunoperoxidase immunostaining for anti-CD-5.
Quantification of morphology: Quantifications were performed blinded. […] The media/lumen ratio was calculated by the outline/inline relationship.

Consider `Oc1ncnc2[nH]ncc12` [AP, allopurinol], for which the “effect on thickening of afferent arterioles” value (with oxonic acid) is reported as “prevented”.
On to `O=C(O)c1nc(=O)[nH]c(=O)[nH]1` [OA, oxonic acid], for which the “AA M/L (afferent arteriole media/lumen ratio)” value (after micropuncture, mean±SE) was found to be 5.1 ± 0.6.
